# Results from ChEMBL document CHEMBL1201862, “PubChem BioAssay data set” (2004).
# Calls of active or inactive are those of the source.
# Columns and labels:
# Kallikrein-7 = Kallikrein-7 (Homo sapiens, UniProt P49862); test: Fluorescence Intensity-based biochemical primary high throughput dose response assay to identify activators of kallikrein-7 (K7) zymogen.
# [1] = Dd2 parasite growth inhibition in erythrocytes – SYBR Green, dry powder samples, set 9, dose response (AID 1159568); format: functional, cell-based
# [2] = inhibition of ADAM10 peptide cleavage – biochemical, FRET peptide substrate, recombinant human ADAM10, selectivity assay for ADAM17 exosite inhibitor project, dose response (AID 743259);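 also: ADAM10 enzyme cleaving a FRET peptide substrate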
# [3] = biological target: Disintegrin and metalloproteinase domain-containing protein 17 (Homo sapiens, UniProt P78536); test: exosite inhibitors of ADAM17, dose response, biochemical (AID 743260)
# Chain of Disintegrin and metalloproteinase domain-containing protein 17 (P78536 whole entry, the tested form may be a part): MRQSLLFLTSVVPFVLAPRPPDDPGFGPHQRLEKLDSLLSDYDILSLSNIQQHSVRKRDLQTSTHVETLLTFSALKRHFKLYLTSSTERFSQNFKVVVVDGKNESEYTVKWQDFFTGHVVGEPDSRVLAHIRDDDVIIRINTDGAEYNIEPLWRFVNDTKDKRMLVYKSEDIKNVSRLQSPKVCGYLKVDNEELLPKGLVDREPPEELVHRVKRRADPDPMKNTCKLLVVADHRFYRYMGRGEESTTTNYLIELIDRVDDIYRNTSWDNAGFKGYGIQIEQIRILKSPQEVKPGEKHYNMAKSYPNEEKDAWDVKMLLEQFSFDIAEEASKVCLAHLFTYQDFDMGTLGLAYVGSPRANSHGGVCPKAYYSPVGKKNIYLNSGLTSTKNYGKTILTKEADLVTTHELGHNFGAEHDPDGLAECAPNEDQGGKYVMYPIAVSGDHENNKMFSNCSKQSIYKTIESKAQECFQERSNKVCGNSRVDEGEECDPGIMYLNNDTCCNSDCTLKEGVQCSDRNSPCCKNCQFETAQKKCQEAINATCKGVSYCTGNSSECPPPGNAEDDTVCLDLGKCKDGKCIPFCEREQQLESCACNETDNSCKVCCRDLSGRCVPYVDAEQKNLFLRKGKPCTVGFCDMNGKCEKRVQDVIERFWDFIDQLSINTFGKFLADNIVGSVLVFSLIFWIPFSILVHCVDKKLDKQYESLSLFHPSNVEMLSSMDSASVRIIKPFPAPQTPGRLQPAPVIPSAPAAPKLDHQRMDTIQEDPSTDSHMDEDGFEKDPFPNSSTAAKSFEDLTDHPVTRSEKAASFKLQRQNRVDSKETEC
# [4] = biological target: T1, Sentrin-specific protease 8 (Homo sapiens, UniProt Q96LD8); format: functional;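 also: luminescence read-out of SENP8 inhibition, dose-response confirmation following an ultra-high-throughput screen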
# T1 sequence (Q96LD8 whole entry): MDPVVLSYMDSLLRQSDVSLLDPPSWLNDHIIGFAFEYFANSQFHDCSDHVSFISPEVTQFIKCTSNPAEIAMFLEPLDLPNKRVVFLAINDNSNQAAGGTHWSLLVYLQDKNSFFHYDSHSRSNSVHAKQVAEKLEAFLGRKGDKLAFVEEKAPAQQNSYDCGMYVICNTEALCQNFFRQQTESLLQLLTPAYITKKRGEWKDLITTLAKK
# [5] = biological target: T2, Sentrin-specific protease 7 (Homo sapiens, UniProt Q9BQF6); format: functional;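 also: Luminescence-based dose-response confirmation of ultra-high-throughput screening hits, measuring inhibition of SENP7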
# T2 sequence (Q9BQF6 whole entry): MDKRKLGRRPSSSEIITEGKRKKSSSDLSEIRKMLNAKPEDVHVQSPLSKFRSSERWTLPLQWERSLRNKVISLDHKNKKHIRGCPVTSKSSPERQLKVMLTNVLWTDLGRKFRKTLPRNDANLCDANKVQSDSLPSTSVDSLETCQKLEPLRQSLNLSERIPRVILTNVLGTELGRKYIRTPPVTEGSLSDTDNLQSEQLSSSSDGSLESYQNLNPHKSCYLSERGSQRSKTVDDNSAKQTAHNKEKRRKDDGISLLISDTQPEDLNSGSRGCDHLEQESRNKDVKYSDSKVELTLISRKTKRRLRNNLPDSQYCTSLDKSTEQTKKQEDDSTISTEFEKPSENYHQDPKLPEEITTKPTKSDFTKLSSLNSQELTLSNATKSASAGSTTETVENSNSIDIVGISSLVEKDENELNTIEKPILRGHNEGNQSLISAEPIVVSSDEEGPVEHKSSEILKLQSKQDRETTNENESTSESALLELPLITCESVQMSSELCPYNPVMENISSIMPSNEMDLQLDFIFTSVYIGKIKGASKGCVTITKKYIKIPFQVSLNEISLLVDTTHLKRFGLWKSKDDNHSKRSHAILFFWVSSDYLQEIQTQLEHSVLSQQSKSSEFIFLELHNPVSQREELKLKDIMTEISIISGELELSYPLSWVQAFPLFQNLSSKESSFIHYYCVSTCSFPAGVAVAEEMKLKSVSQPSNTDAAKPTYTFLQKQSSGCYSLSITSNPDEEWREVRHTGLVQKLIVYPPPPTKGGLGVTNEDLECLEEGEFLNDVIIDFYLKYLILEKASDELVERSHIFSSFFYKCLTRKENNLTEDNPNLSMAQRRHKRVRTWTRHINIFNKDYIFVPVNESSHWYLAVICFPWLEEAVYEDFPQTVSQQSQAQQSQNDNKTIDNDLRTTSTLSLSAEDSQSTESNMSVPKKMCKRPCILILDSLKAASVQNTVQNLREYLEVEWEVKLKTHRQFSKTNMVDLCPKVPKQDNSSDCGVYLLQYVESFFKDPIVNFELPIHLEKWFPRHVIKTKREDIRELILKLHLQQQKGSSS
# [6] = Luminescence Cell-Based Dose Confirmation HTS to Identify Activators of 5'UTR Stem-Loop Driven Alpha-Synuclein mRNA Translation in H4 Neuroglioblastoma Cells. [Related pubchem assays: 1829 (Project Summary), 1814 (Primary HTS)]; format: functional
# cells [7] = format: functional, cell-based
# Nonstructural protein 1 = Nonstructural protein 1 (Influenza A virus, UniProt Q194T2); format: functional, Influenza A virus (A/California/07/2009(H1N1))
# Chain of Nonstructural protein 1 (Q194T2 whole entry): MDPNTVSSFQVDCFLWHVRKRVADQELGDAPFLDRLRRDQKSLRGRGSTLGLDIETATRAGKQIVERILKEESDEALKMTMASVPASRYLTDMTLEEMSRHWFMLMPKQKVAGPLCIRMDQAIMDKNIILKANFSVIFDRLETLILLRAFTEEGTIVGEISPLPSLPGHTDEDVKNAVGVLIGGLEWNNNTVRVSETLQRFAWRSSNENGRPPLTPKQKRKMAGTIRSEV
# H4 = test: Luminescence Cell-Based Dose Response HTS to Identify Activators of 5'UTR Stem-Loop Driven Prion Protein mRNA Translation in H4 Neuroglioblastoma Cells. [Related pubchem assays: 1829 (Project Summary), 1814 (Primary HTS)]; format: functional; details: Homo sapiens
# Caspase-3 = biological target: T3, Caspase-3 (Homo sapiens, UniProt P42574); format: functional;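 also: Dose-response selectivity test against caspase-3 for candidate inhibitors of sentrin-specific proteases (SENPs)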
# T3 sequence (P42574 whole entry): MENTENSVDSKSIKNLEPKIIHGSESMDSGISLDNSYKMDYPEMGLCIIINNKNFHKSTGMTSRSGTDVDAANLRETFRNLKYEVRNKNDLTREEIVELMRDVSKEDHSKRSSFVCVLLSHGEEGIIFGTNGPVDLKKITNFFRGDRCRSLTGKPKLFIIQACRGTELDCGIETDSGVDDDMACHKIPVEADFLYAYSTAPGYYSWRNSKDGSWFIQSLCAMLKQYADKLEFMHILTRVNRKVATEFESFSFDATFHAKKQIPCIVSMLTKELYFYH
# cells [8] = test: cells
# [9] = biological target: T4, Oxysterols receptor LXR-beta (Homo sapiens, UniProt P55055); format: functional, cell-based;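 also: Cell-based luminescence dose-response assay of agonist activity at LXR, run as a confirmatory counterscreen to a daf-12 agonist screen; HEK293 cells with Gal4-LXR fusion and GAL4-driven luciferase reporter; agonist potency from rising luciferase signal of a Gal4-LXR reporter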
# T4 sequence (P55055 whole entry): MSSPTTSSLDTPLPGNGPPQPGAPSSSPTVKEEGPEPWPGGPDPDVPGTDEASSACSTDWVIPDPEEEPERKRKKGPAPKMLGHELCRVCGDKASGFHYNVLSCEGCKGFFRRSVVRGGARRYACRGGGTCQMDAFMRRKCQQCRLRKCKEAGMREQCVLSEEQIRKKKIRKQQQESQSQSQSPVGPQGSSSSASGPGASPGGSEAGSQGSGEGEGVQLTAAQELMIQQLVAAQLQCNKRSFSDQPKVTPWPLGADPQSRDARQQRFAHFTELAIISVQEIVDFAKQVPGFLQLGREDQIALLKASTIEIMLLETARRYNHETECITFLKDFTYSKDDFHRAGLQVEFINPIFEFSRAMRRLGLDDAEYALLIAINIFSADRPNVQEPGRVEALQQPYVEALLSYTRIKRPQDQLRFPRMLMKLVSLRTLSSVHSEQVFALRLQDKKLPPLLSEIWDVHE
# [10] = Luminescence Cell-Based Dose Response HTS to Identify Activators of Luciferase Translation or Activity in H4 […] Cells. [Related pubchem assays: 1829 (Project Summary), 1814 (Primary HTS)]; format: functional
# [11] = biological target: T5, Sentrin-specific protease 6 (Homo sapiens, UniProt Q9GZR1); format: functional;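 also: Luminescence-based dose-response confirmatory assay of SENP6 inhibition, following up an ultra-high-throughput screen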
# T5 sequence (Q9GZR1 whole entry): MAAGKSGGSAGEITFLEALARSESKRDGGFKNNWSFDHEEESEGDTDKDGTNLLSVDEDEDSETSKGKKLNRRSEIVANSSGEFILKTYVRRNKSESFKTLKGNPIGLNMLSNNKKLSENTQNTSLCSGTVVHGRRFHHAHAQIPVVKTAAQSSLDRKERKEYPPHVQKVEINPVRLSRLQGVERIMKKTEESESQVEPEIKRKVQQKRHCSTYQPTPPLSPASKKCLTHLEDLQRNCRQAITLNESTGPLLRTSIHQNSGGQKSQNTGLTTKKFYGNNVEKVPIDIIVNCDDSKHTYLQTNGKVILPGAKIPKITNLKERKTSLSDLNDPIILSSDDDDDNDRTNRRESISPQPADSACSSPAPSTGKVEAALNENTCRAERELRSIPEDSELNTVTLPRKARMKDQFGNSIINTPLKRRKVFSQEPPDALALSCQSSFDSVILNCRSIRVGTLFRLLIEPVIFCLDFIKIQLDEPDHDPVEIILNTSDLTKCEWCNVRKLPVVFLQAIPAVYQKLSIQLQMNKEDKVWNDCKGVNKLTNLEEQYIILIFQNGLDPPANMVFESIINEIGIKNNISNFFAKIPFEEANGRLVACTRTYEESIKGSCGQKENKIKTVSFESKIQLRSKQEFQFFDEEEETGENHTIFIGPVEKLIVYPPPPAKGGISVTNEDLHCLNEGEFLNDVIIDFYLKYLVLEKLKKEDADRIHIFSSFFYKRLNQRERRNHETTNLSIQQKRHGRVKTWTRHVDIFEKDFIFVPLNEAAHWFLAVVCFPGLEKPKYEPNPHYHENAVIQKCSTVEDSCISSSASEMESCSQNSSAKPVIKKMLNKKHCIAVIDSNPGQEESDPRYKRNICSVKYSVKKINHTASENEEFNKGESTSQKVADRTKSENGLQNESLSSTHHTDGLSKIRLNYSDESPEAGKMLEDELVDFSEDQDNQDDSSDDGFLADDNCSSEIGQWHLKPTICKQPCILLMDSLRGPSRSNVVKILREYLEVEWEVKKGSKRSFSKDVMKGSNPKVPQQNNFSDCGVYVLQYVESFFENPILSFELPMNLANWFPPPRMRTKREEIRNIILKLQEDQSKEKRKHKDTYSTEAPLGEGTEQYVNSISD
# cells [12] = format: functional, cell-based; remark: listed apart in the source
# [13] = Luminescence Cell-Based Dose Confirmation HTS to Identify Inhibitors of Platelet Dense Granule Release. [Related pubchem assays: 1663 (Primary HTS), 1678 (Summary of Project)]; format: functional
# Caspase-6 = biological target: T6, Caspase-6 (Homo sapiens, UniProt P55212); test: inhibition of CASP6 peptide cleavage – biochemical, VEID-R110 fluorescence, cherry-pick, dose response (AID 720632)
# T6 sequence (P55212 whole entry): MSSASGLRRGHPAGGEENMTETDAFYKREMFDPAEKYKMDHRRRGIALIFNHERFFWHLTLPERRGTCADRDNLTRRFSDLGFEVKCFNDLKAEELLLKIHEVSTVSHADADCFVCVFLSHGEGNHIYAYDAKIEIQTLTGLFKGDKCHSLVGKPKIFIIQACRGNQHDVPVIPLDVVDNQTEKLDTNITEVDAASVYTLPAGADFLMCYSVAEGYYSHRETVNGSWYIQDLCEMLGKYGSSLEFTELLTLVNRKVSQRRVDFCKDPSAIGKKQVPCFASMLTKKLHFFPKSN
# [14] = biological target: Luciferin 4-monooxygenase (Photinus pyralis, UniProt P08659); test: inhibition of purified Photinus pyralis luciferase – biochemical, luminescence, dose response (AID 1891)
# Chain of Luciferin 4-monooxygenase (P08659 whole entry): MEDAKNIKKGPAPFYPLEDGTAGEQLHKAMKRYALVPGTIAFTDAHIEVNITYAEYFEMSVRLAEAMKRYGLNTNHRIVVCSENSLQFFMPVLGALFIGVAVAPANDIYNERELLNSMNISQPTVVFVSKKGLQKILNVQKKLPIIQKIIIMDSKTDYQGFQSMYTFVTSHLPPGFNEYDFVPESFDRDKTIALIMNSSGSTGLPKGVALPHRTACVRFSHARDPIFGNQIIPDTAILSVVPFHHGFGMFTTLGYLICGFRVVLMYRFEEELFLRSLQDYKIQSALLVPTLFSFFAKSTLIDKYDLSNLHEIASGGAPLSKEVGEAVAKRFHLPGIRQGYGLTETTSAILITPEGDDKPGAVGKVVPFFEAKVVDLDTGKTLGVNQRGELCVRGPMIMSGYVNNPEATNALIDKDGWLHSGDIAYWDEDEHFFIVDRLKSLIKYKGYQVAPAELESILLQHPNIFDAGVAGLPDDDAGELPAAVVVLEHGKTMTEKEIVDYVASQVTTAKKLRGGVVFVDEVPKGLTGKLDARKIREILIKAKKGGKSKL
# [15] = viability loss in THP-1 monocytes – THP-1 cells, cytotoxicity control for Vif-APOBEC3G degradation inhibitor project, dose response (AID 1117359); format: functional; details: THP-1
# [16] = biological target: T7, Carboxy-terminal domain RNA polymerase II polypeptide A small phosphatase 1 (Homo sapiens, UniProt Q9GZU7); test: CTDSP1 inhibitors, concentration-response, biochemical, absorbance readout, ultra-high-throughput screen actives (AID 540297); format: functional
# T7 sequence (Q9GZU7 whole entry): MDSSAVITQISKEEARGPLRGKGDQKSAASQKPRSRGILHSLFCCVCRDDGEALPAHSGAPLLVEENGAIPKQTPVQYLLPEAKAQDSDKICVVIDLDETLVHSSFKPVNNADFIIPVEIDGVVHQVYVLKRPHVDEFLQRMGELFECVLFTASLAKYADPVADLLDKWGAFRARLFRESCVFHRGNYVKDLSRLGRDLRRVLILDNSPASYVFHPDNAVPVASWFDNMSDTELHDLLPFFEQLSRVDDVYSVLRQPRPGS
# Paired box protein Pax-8 = Paired box protein Pax-8 (Homo sapiens, UniProt Q06710); test: PAX8 transcriptional activity inhibition in RMG-I – RMG-I cells, luciferase, cherry-pick, dose response (AID 687027); format: functional, cell-based;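 also: luciferase reporter driven by Pax8 target thyroperoxidase promoter measured by SteadyGlo luminescence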
# Chain of Paired box protein Pax-8 (Q06710 whole entry): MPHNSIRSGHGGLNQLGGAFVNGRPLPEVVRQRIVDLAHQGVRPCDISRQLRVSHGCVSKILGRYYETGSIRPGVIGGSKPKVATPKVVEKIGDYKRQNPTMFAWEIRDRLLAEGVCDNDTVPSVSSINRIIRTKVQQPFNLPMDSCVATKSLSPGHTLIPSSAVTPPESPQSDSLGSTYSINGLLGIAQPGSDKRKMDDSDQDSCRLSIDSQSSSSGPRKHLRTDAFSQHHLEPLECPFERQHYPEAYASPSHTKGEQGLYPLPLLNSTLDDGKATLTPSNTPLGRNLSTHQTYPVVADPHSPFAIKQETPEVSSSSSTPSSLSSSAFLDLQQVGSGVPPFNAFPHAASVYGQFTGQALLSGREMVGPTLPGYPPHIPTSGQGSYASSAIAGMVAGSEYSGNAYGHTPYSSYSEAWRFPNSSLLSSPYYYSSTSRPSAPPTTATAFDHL
# [17] = A2780 cell killing – plate reader, dry powder samples, cytotoxicity control, dose response (AID 743046); format: functional, cell-based
# Chain of Kallikrein-7 (P49862 whole entry): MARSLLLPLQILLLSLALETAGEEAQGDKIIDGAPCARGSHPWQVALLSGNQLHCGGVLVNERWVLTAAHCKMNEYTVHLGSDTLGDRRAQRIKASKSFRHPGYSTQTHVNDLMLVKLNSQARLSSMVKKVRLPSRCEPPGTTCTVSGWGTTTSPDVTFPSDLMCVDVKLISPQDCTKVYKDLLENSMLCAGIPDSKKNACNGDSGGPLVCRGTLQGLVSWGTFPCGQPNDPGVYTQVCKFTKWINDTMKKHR
compound,measurement,setting,value
COc1ccc(NC(=O)c2ccc(NC(=O)CSc3nc(N)cc(O)n3)cc2)cc1,EC50,Kallikrein-7,22.4 µM (inactive)
CCCC#Cc1ccc2c(c1)O[C@H](CN(C)Cc1ccccn1)[C@H](C)CN([C@@H](C)CO)S2(=O)=O,AC50,[1],3.94 µM (active)
Cc1cccc(NC(=O)CSc2nnc(SCc3ccc(Cl)cc3)s2)c1,IC50,[2],> 69.4 µM (inactive)
same,IC50,[3],> 69.4 µM (inactive)
CCCc1cc(NCCOCCO)n2c(nc3ccccc32)c1C#N,EC50,Kallikrein-7,> 2.57 µM (active)
COc1cccc(C(=O)c2c(-c3ccccc3)ncc3cc(OC)c(OC)cc23)c1,IC50,[2],> 69.4 µM (inactive)
same,IC50,[3],> 69.4 µM (inactive)
c1ccc(N=Nc2ccc3cccccc2-3)cc1,IC50,[4],22.3 µM (active)
same,IC50,[5],4.59 µM (active)
same,EC50,[6],0.771 µM (active)
same,EC50,cells [7],6.29 µM (active)
same,IC50,Nonstructural protein 1,10.8 µM (active)
same,EC50,H4,> 120 µM (not active)
same,IC50,Caspase-3,24.5 µM (active)
same,EC50,cells [8],> 67.5 µM (inactive)
same,EC50,[9],> 67.5 µM (inactive)
same,EC50,[10],1.1 µM (active)
same,IC50,[11],13.9 µM (active)
same,EC50,cells [12],> 350 µM (not active)
C[C@@H]1CN([C@H](C)CO)C(=O)c2ccccc2-c2ccccc2CO[C@H]1CN(C)C(=O)[C@H](Cc1ccccc1)N(C)C,AC50,[1],11.9 µM (active)
O=C(O)C1C2C=CC(C2)C1C(=O)NCc1cccs1 (stereo not drawn),EC50,[13],> 112 µM (not active)
same,AC50,Caspase-6,14.8 µM (active)
same,EC50,[14],> 112 µM (not active)
O=C(CCc1c[nH]c2ccccc12)N1CCN(c2ccc(O)cc2)CC1,CC50,[15],> 40 µM (active)
COc1ccc(S(=O)(=O)NNC(=O)Cc2csc(C)n2)cc1[N+](=O)[O-],IC50,[16],16.3 µM (active)
same,AC50,Caspase-6,8.98 µM (active)
Clc1ccc(CNc2ccc(CNc3nc[nH]n3)cc2)c(Cl)c1,CC50,[15],> 40 µM (active)
C[C@@H]1CN([C@H](C)CO)C(=O)c2c(c3ccccc3n2C)-c2ccccc2CO[C@H]1CN(C)S(=O)(=O)c1cccc(F)c1,AC50,Paired box protein Pax-8,19.2 µM (active)
same,AC50,[17],4.51 µM (active)
CCOC(=O)c1c(C)nn(Cc2cccc(Cl)c2)c1N,CC50,[15],> 40 µM (active)
COC(=O)C1=NN(c2ccccc2)C2C(=O)N(c3ccccc3OC)C(=O)C12 (stereo not drawn),EC50,Kallikrein-7,> 69.5 µM (inactive)
Cc1ccc(S(=O)(=O)N2CCC(=O)N([C@H](COC(=O)Nc3ccccc3)Cc3ccccc3)CC2)cc1,IC50,[2],> 7.72 µM (active)
same,IC50,[3],> 69.4 µM (inactive)
